Results from the supplement of paper PMC4862054.
Where “and” joins values, the source holds several entries; their conditions need not be identical. Equal entries are not always repeated.

Experiments:
Experiment in all cases: normalised viability (% of control), CellTiter-Blue; higher = more viable cells (about 100 = DMSO control)
Settings in all cases: incubation time: 72 h
BT-474 [1] = test system: BT-474
Experimental: (§1)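 DSRT, CellTiter-Blue viability, 72 h incubation. Signal is normalised to DMSO and benzethonium chloride controls. Value is the normalised response at dose 3.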

BT-549 [2] = test system: BT-549
Experimental: as §1

CAL-120 = test system: CAL-120
Experimental: as §1

CAL-148 [3] = test system: CAL-148
Experimental: as §1

CAL-51 = test system: CAL-51
Experimental: as §1

CAL-85-1 = test system: CAL-85-1
Experimental: as §1

DU-4475 [4] = test system: DU-4475
Experimental: as §1

HCC1143 [5] = test system: HCC1143
Experimental: as §1

HCC1599 = test system: HCC1599
Experimental: as §1

HCC1937 [6] = test system: HCC1937
Experimental: as §1

HDQ-P1 [7] = test system: HDQ-P1
Experimental: as §1

Hs578T = test system: Hs578T
Experimental: as §1

MDA-MB-231 [8] = test system: MDA-MB-231
Experimental: as §1

MDA-MB-436 = test system: MDA-MB-436
Experimental: as §1

MDA-MB-453 [9] = test system: MDA-MB-453
Experimental: as §1

MDA-MB-468 = test system: MDA-MB-468
Experimental: as §1

MFM-223 [10] = test system: MFM-223
Experimental: as §1

SK-BR-3 [11] = test system: SK-BR-3
Experimental: as §1

BT-474 [12] = test system: BT-474; remark: listed apart in the source
Summary of the method: (§2)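 Vehicle (100) and a positive kill control (0) anchored the normalisation of each plate, and Z'-factor was used for quality control. Breast cancer cell lines in 20 µl suspension were incubated 72 h over compound in 5 µl medium in 384-well plates, followed by CellTiter-Blue at 560/590 nm. The value is normalised viability at a single listed concentration of the series.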

BT-549 [13] = test system: BT-549; remark: listed apart in the source
Summary of the method: as §2

CAL-148 [14] = test system: CAL-148; remark: listed apart in the source
Summary of the method: as §2

DU-4475 [15] = test system: DU-4475; remark: listed apart in the source
Summary of the method: as §2

HCC1143 [16] = test system: HCC1143; remark: listed apart in the source
Summary of the method: as §2

HCC1937 [17] = test system: HCC1937; remark: listed apart in the source
Summary of the method: as §2

HDQ-P1 [18] = test system: HDQ-P1; remark: listed apart in the source
Summary of the method: as §2

MDA-MB-231 [19] = test system: MDA-MB-231; remark: listed apart in the source
Summary of the method: as §2

MDA-MB-453 [20] = test system: MDA-MB-453; remark: listed apart in the source
Summary of the method: as §2

MFM-223 [21] = test system: MFM-223; remark: listed apart in the source
Summary of the method: as §2

SK-BR-3 [22] = test system: SK-BR-3; remark: listed apart in the source
Summary of the method: as §2

CC(=O)O[C@@]12CO[C@@H]1C[C@H](O)[C@@]1(C)C(=O)[C@H](O)C3=C(C)[C@@H](OC(=O)[C@H](O)[C@@H](NC(=O)OC(C)(C)C)c4ccccc4)C[C@@](O)([C@@H](OC(=O)c4ccccc4)[C@H]21)C3(C)C [Docetaxel]
Settings | normalised viability
BT-474 [1], 10 nM | 49.9% and 46.2%
BT-474 [12], 1 nM | 91.6% and 101%
BT-474 [12], 100 nM | 21.4% and 27.7%
BT-474 [12], 1000 nM | 16.9% and 28.5%
BT-549 [2], 10 nM | 28% and 25.4%
BT-549 [13], 1 nM | 64.5% and 58.7%
BT-549 [13], 100 nM | 24.3% and 19%
BT-549 [13], 1000 nM | 24.4% and 20.3%
CAL-51, 1 nM | 101% and 90.4%
CAL-85-1, 1 nM | 88.3% and 86.5%
CAL-120, 10 nM | 32.1% and 30.1%
CAL-148 [3], 1 nM | 99.2% and 81.9%
CAL-148 [14], 0.3 nM | 97.3% and 89.1%
CAL-148 [14], 3 nM | 41.6% and 29.8%
CAL-148 [14], 10 nM | 21.9% and 19.9%
DU-4475 [4], 1 nM | 86% and 95.2%
DU-4475 [15], 0.3 nM | 116% and 110%
DU-4475 [15], 3 nM | 50.8% and 35.1%
DU-4475 [15], 10 nM | 34.5% and 35.6%
HCC1143 [5], 10 nM | 51.7% and 35.2%
HCC1143 [16], 1 nM | 79.8% and 66.2%
HCC1143 [16], 100 nM | 34.7% and 31.3%
HCC1143 [16], 1000 nM | 35.3% and 33%
HCC1599, 10 nM | 110% and 108%
HCC1937 [6], 10 nM | 32.2% and 27.2%
HCC1937 [17], 1 nM | 53.9% and 76.2%
HCC1937 [17], 100 nM | 20.5% and 17.5%
HCC1937 [17], 1000 nM | 27.5% and 19%
HDQ-P1 [7], 1 nM | 78.7% and 71.2%
HDQ-P1 [18], 0.3 nM | 86.7% and 84.7%
HDQ-P1 [18], 3 nM | 58.6% and 72.4%
Hs578T, 10 nM | 13.1% and 18.8%
MDA-MB-231 [8], 10 nM | 34.8% and 32.6%
MDA-MB-231 [19], 1 nM | 83% and 72.7%
MDA-MB-231 [19], 100 nM | 17% and 21.6%
MDA-MB-231 [19], 1000 nM | 21.6% and 21%
MDA-MB-436, 10 nM | 51.1% and 52%
MDA-MB-453 [9], 1 nM | 85.9% and 66.5%
MDA-MB-453 [20], 0.3 nM | 121% and 107%
MDA-MB-453 [20], 3 nM | 48.1% and 57.8%
MDA-MB-453 [20], 10 nM | 39.6% and 31.9%
MDA-MB-468, 10 nM | 50% and 41.6%
MFM-223 [10], 10 nM | 59.6% and 53.8%
MFM-223 [21], 1 nM | 84.9% and 81.8%
MFM-223 [21], 100 nM | 43.6% and 47.1%
MFM-223 [21], 1000 nM | 47.8% and 41.5%
SK-BR-3 [11], 10 nM | 6.91% and 8.46%
SK-BR-3 [22], 1 nM | 85.7% and 86.8%
SK-BR-3 [22], 100 nM | 19% and 14.4%
SK-BR-3 [22], 1000 nM | 18.3% and 14.1%

Nc1ncn([C@@H]2O[C@H](CO)[C@@H](O)[C@H]2O)c(=O)n1 [Azacitidine]
Settings | normalised viability [%]
BT-474 [1], 100 nM | 107
BT-474 [12], 10 nM | 104
BT-474 [12], 1000 nM | 102
BT-474 [12], 10000 nM | 95
BT-549 [2], 100 nM | 106
BT-549 [13], 10 nM | 115
BT-549 [13], 1000 nM | 95.4
BT-549 [13], 10000 nM | 48.7
CAL-51, 10 nM | 108
CAL-85-1, 10 nM | 95.2
CAL-120, 100 nM | 90.9
CAL-148 [3], 10 nM | 82.7
CAL-148 [14], 3 nM | 83.8
CAL-148 [14], 30 nM | 85.2
CAL-148 [14], 100 nM | 89.3
DU-4475 [4], 10 nM | 118
DU-4475 [15], 3 nM | 97.2
DU-4475 [15], 30 nM | 116
DU-4475 [15], 100 nM | 117
HCC1143 [5], 100 nM | 91.5
HCC1143 [16], 10 nM | 72.6
HCC1143 [16], 1000 nM | 83.8
HCC1143 [16], 10000 nM | 62.3
HCC1599, 100 nM | 97
HCC1937 [6], 100 nM | 98.3
HCC1937 [17], 10 nM | 94
HCC1937 [17], 1000 nM | 74.4
HCC1937 [17], 10000 nM | 56.9
HDQ-P1 [7], 10 nM | 108
HDQ-P1 [18], 3 nM | 141
HDQ-P1 [18], 30 nM | 104
HDQ-P1 [18], 100 nM | 96
Hs578T, 100 nM | 91.7
MDA-MB-231 [8], 100 nM | 84.5
MDA-MB-231 [19], 10 nM | 81.1
MDA-MB-231 [19], 1000 nM | 85.4
MDA-MB-231 [19], 10000 nM | 69.9
MDA-MB-436, 100 nM | 89.3
MDA-MB-453 [9], 10 nM | 101
MDA-MB-453 [20], 3 nM | 104
MDA-MB-453 [20], 30 nM | 109
MDA-MB-453 [20], 100 nM | 102
MDA-MB-468, 100 nM | 103
MFM-223 [10], 100 nM | 94.7
MFM-223 [21], 10 nM | 100
MFM-223 [21], 1000 nM | 95.5
MFM-223 [21], 10000 nM | 59.4
SK-BR-3 [11], 100 nM | 89.3
SK-BR-3 [22], 10 nM | 92
SK-BR-3 [22], 1000 nM | 106
SK-BR-3 [22], 10000 nM | 66.6
